# The source made the active and inactive calls. No cut-off for these calls is given here.
# Tests used:
# [1] = test system: Streptococcus mutans; assay: Antibacterial activity against Streptococcus mutans Ingbritt after 48 hrs by spectrophotometry; type: functional
# [2] = test system: Streptococcus sanguinis; assay: Antibacterial activity against Streptococcus sanguis after 48 hrs by spectrophotometry; type: functional
# [3] = test system: Porphyromonas gingivalis; assay: Antibacterial activity against Porphyromonas gingivalis after 48 hrs by spectrophotometry; type: functional
# [4] = test system: Prevotella intermedia; assay: Antibacterial activity against Prevotella intermedia after 48 hrs by spectrophotometry; type: functional, organism-based
MIC [1],MIC [2],MIC [3],Compound,Activity [3],Activity [4]
1 µg/mL,1 µg/mL,–,CC1=C2c3c(C)cc(O)c4c(O[C@@H]5O[C@H](CO[C@@H]6OC[C@@H](O)[C@H](O)[C@H]6O)[C@@H](O)[C@H](O)[C@H]5O)ccc(c34)OC2(O)c2c(O[C@@H]3O[C@H](CO[C@@H]4OC[C@@H](O)[C@H](O)[C@H]4O)[C@@H](O)[C@H](O)[C@H]3O)ccc(O)c2C1=O (stereo not given in full),inactive,inactive
1 µg/mL,1 µg/mL,–,CC1=C2c3c(C)cc(O)c4c(O[C@@H]5O[C@H](CO[C@@H]6OC[C@@H](O)[C@H](O)[C@H]6O)[C@@H](O)[C@H](O)[C@H]5O)ccc(c34)OC2(O)c2c(O[C@@H]3O[C@H](CO)[C@@H](O)[C@H](O)[C@H]3O)ccc(O)c2C1=O (stereo not given in full),inactive,inactive
15 µg/mL,–,15 µg/mL,C[n+]1cc2c3c(ccc2c2ccc4cc5c(cc4c21)OCO5)OCO3 [SANGUINARIUM],–,–

# From ChEMBL document CHEMBL1150910, “Binaphthalenone glycosides from African chewing sticks, Diospyros lycioides” (1998)
